From paper PMC12466451 (Antibiotics, 2025) come the findings set out here.

The nature of this data set: Surfactin C metabolism study: metabolic stability in liver microsomes with NADPH. Format: in vitro ADME, chicken. The following applies: for percentage of initial concentration remaining after incubation with microsomes: chicken liver microsomes 0.5 mg/mL, NADPH, 1.0 µM, 37 °C, 120 min; for t1/2 / k (elimination rate constant): chicken liver microsomes; for t1/2: t1/2 = ln(2)/k; for k (elimination rate constant): slope of ln-concentration versus time plot, 0-120 min. Here is the method: After determining the presence of surfactin C analogues in F1, BPR-17 and BPR-16, an in vitro metabolism assay was conducted to investigate the bioavailability and stability of these compounds. This study involved incubating the bioactive metabolites with liver microsomes obtained from chickens to predict and evaluate their potential efficacy and bioavailability once digested. The microsomal assay was performed by first harvesting the chicken microsomes from the liver. Once obtained, these were incubated with the surfactin C compounds in the presence of NADPH, which serves as an essential cofactor for cytochrome P450 enzymes. The degradation of surfactin C analogues over time was monitored by measuring their peak areas using LC-MS/MS [29]. Additionally, a positive control compound (verapamil) was used to confirm the metabolic activity of the liver microsomes.
Preparation of microsomes from liver tissue was performed according to the protocols developed by Knights et al. 2016 [45]. Livers from chickens approximately 42 days old were obtained from Golden Cockerel poultry processors (Mount Cotton, QLD, Australia). Immediately after harvesting, the livers were washed in 1.15% KCl in lab grade H2O to remove excess blood and transported to the laboratory on ice for processing. To prepare the microsomes, 10 g of liver tissue was homogenized in buffer (10 mM potassium phosphate, pH 7.4) using an Ultraturrax-style homogeniser with three 30-s bursts, cooling the sample on ice between each burst. The homogenate was then centrifuged at 7000× g for 10 min at 4 °C. The crude pellet was discarded, and the supernatant was further separated by ultracentrifugation at 105,000× g for 60 min at 4 °C. The supernatant was decanted, and the pellet was rinsed with 1 mL of microsome buffer. The rinsing and ultracentrifugation process was repeated twice, and the resulting pellet was resuspended in microsome storage buffer and stored at −80 °C until further use. A Bradford assay was used to determine the concentration of the protein in the sample [46].
The test compounds C13-C1_6 surfactin C (10.0 mM) were prepared in DMSO, and the metabolic stability of test compounds was determined in triplicate in an oscillating water bath (Grant) at 37 °C and 150 RPM [25]. Positive control (verapamil; 0.001 mM) and negative control (without NADPH regeneration system) incubations were conducted concurrently. Tubes containing potassium phosphate buffer (100 mM) at pH 7.4, microsomal protein stock solution (0.5 mg/mL), test compound solution (1.0 µM) and glucose-6-phosphate dehydrogenase (1 IU/mL) were preincubated at 37 °C for 5 min prior to the reaction being initiated by the addition of 25 µL of a 20× stock of an NADPH regeneration system (NRS) containing NADP (1.3 mM). The total incubation volume was 0.5 mL. The mixture was then incubated at 37 °C in an oscillating water bath (Grant) at 150 RPM for 0, 10, 20, 30, 60, and 120 min. At each time point, reactions were terminated by the addition of 150 µL of ice-cold acetonitrile containing cyclosporin A (60 ng/mL) as an internal standard for test compounds or clotrimazole (50 ng/mL) for verapamil. The test tubes were centrifuged at 13,000× g for 5 min, and ~100 µL of supernatant was transferred to polypropylene 96-well plates for LC-MS/MS analysis using a Waters ALLIANCE HPLC system coupled to a Waters Quattro Micro triple quadrupole mass spectrometer (Milford, MA, USA). Chromatographic separation was achieved using a Phenomenex HPLC C18 column (4.6 × 50 mm, 3 µm). Mass spectrometric detection was performed in negative ion multiple reaction monitoring mode with argon as the collision gas. Data acquisition and processing were carried out using MassLynx software (version 4.1, Waters). The half-life (t1/2) of each test compound was calculated using the equation t1/2 = ln(2)/k, where k is the elimination rate constant derived from the slope obtained from the ln-concentration versus time plot.

As to C13 surfactin C, the “percentage of initial concentration remaining after incubation with microsomes” value is recorded as “approximately 84%” and the t1/2 worked out at 19.25 h.

With C14 surfactin C, the “percentage of initial concentration remaining after incubation with microsomes” value was around 95%.

Take C15 surfactin C: the “percentage of initial concentration remaining after incubation with microsomes” value is recorded as around 99%, the “k (elimination rate constant)” value amounted to 0.0008 and the t1/2 came to 14.438 h.

Turning to C16 surfactin C, the “percentage of initial concentration remaining after incubation with microsomes” value was around 92%, the “k (elimination rate constant)” value worked out at 0.0007 and the t1/2 came to 16.5 h.
